This experiment in a line: Cytotoxicity against human HL60 cells assessed as cell growth inhibition after 72 hrs by MTT assay. Format: functional, cell-based. As to conditions: HL-60, 72 h. A general note: Tetrazolium assays rely on reduction of a dye to a coloured formazan, in cell work by metabolically active cells.

pIC50: −log10 of the molar value.

Consider `COc1cc([C@@H]2c3cc4c(cc3[C@@H](O[C@@H]3O[C@@H]5CO[C@@H](C)O[C@H]5[C@H](O)[C@H]3O)[C@H]3COC(=O)[C@H]23)OCO4)cc(OC)c1O` [ETOPOSIDE], for which the pIC50 is 6.52.

On to `C[C@@H]1CCC=C2CC[C@]3(C[C@]21C)O[C@]3(C)CO`, for which the pIC50 was 4.24.

Usually pIC50 stands for the IC50 on a negative log10 scale, so that one unit is a factor of ten.

These data come from ChEMBL document CHEMBL3867456, “Vetiverianines A, B, and C: Sesquiterpenoids from Vetiveria zizanioides Roots” (J Nat Prod, 2016).
